Measured values as given in US10858335B2 (Rigel Pharmaceuticals, Inc., priority 2014, dated 2020).

The compounds below were run on GDF8 signaling (p-SMAD-3 (Ser423/425)) (assay: AlphaScreen SureFire SMAD3 (p-Ser423/425) assay, GDF8-stimulated cells (GDF pSMAD)). Details: Mus musculus, MPC-11, GDF8-stimulated pSMAD3, MPC11; tested as the salt form given; read-out: GDF pSMAD (MPC11) (μM), inhibition of GDF8 signaling.
Format: cell-based

Going from `Cc1ccc(Cl)cc1-c1ncccc1-c1ccc2ncsc2c1` [compound 1057] to `Nc1ncnc2ccc(-c3cc(F)cnc3-c3ccc(F)c(Cl)c3)cc12` [compound 998, 6-(2-(3-chloro-4-fluorophenyl)-5-fluoropyridin-3-yl)quinazolin-4-amine], the IC50 rises from 0.371 µM to 2.44 µM (6.6-fold).

Same assay, conditions: Mus musculus, MPC-11, MPC11; GDF8-stimulated; p-SMAD3 AlphaScreen; read-out: GDF pSMAD (MPC11) (inhibition of GDF8 signaling)

Going from `Cc1cc(-c2ncc(NCc3cccnc3)cc2-c2ccc3nccnc3c2)ccc1F` [compound 244, 6-(4-Fluoro-3-methylphenyl)-N-(pyridin-3-ylmethyl)-5-(quinoxalin-6-yl)pyridin-3-amine] to `Cc1cc(-c2ncc(NCc3ccc(C#N)cc3)cc2-c2ccc3nccnc3c2)ccc1F` [compound 308, 4-(((6-(4-Fluoro-3-methylphenyl)-5-(quinoxalin-6-yl)pyridin-3-yl)amino)methyl)benzonitrile], the IC50 rises from 0.798 µM to 4.81 µM (6-fold).

`CNc1ncnc2ccc(-c3cccnc3-c3ccc(F)c(Cl)c3)cc12` [compound 886, 6-(2-(3-Chloro-4-fluorophenyl)pyridin-3-yl)-N-methylquinazolin-4-amine] and `Fc1ccc(-c2ncccc2-c2ccc3ncsc3c2)cc1Cl` [compound 686, 6-(2-(3-Chloro-4-fluorophenyl)pyridin-3-yl)benzo[d]thiazole] are within 1.5-fold of each other in IC50: 0.253 µM for the first, 0.205 µM for the second.

Compared with `Fc1ccc(-c2ncccc2-c2ccc3ncnn3c2)cc1Cl` [compound 692, 6-(2-(3-Chloro-4-fluorophenyl)pyridin-3-yl)-[1,2,4]triazolo[1,5-a]pyridine], `Fc1ccc(Cl)cc1-c1ncccc1-c1ccc2ncnn2c1` [compound 747, 6-(2-(5-Chloro-2-fluorophenyl)pyridin-3-yl)-[1,2,4]triazolo[1,5-a]pyridine] is 1.5-fold lower in IC50: 0.436 µM for the first, 0.284 µM for the second.

`c1cc(-c2ncccc2-c2ccc3ncncc3c2)cc(C2CC2)c1` [compound 365, 6-(2-(3-Cyclopropylphenyl)pyridin-3-yl)quinazoline] and `N#Cc1cnc2ccc(-c3cccnc3-c3cccc(C4CC4)c3)cn12` [compound 559, 6-(2-(3-Cyclopropylphenyl)pyridin-3-yl)imidazo[1,2-a]pyridine-3-carbonitrile] are within 1.5-fold of each other in IC50: 0.165 µM for the first, 0.162 µM for the second.

Going from `Cc1cc(-c2ncccc2-c2ccn3ncc(C(=O)N[C@H]4CCCC[C@@H]4N)c3c2)ccc1F` [compound 664, N-((1S,2S)-2-Aminocyclohexyl)-5-(2-(4-fluoro-3-methylphenyl)pyridin-3-yl)pyrazolo[1,5-a]pyridine-3-carboxamide] to `CN1CCC(NC(=O)c2cnn3ccc(-c4cccnc4-c4ccc(F)c(Cl)c4)nc23)CC1` [compound 899, 5-(2-(3-Chloro-4-fluorophenyl)pyridin-3-yl)-N-(1-methylpiperidin-4-yl)pyrazolo[1,5-a]pyrimidine-3-carboxamide], the IC50 rises from 1.38 µM to 2.14 µM (1.6-fold). The first is the more potent here.

`FC(F)Oc1cccc(-c2ncccc2-c2ccn3ncnc3c2)c1` [compound 883, 7-(2-(3-(Difluoromethoxy)phenyl)pyridin-3-yl)-[1,2,4]triazolo[1,5-a]pyridine] and `COc1cccc(-c2ncccc2-c2ccc3ncnn3c2)c1` [compound 779, 6-(2-(3-Methoxyphenyl)pyridin-3-yl)-[1,2,4]triazolo[1,5-a]pyridine] are within 1.5-fold of each other in IC50: 0.512 µM for the first, 0.761 µM for the second.

Compared with `Cc1cc(-c2ncc(NC3CCN(C)CC3)cc2-c2ccc3ncsc3c2)ccc1F` [compound 247, 5-(Benzo[d]thiazol-6-yl)-6-(4-fluoro-3-methylphenyl)-N-(1-methylpiperidin-4-yl)pyridin-3-amine], `CCCC(=O)Nc1cnc(-c2ccc(F)c(C)c2)c(-c2ccc3ncsc3c2)c1` [compound 316, N-(5-(Benzo[d]thiazol-6-yl)-6-(4-fluoro-3-methylphenyl)pyridin-3-yl)butyramide] is 2-fold higher in IC50: 3.2 µM for the first, 6.39 µM for the second. The first is the more potent here.

Compared with `Cc1cnc2ccc(-c3cccnc3-c3ccc(F)c(Cl)c3)cn12` [compound 764, 6-(2-(3-Chloro-4-fluorophenyl)pyridin-3-yl)-3-methylimidazo[1,2-a]pyridine], `Fc1ccc(-c2ncccc2-c2ccc3ncc(-c4ncc[nH]4)n3c2)cc1Cl` [compound 845, 6-(2-(3-Chloro-4-fluorophenyl)pyridin-3-yl)-3-(1H-imidazol-2-yl)imidazo[1,2-a]pyridine] is 4.7-fold lower in IC50: 0.275 µM for the first, 0.0588 µM for the second. The second is the more potent here.

Going from `Fc1cnc(-c2cc(Cl)ccc2F)c(-c2ccn3ncnc3c2)c1` [compound 862, 7-(2-(5-Chloro-2-fluorophenyl)-5-fluoropyridin-3-yl)-[l 1,2,4]triazolo[1,5-a]pyridine] to `Fc1ccc(Cl)cc1-c1ncccc1-c1ccn2ncnc2c1` [compound 736, 7-(2-(5-Chloro-2-fluorophenyl)pyridin-3-yl)-[1,2,4]triazolo[1,5-a]pyridine], the IC50 falls from 1.84 µM to 0.251 µM (7.3-fold). The second is the more potent here.

Compared with `Fc1cc(F)cc(-c2ncccc2-c2ccc3[nH]ncc3c2)c1` [Compound 67, 5-[2-(3,5-Difluorophenyl)pyridin-3-yl]-1H-indazole], `Cc1ccc(-c2ccc3[nH]ncc3c2)c(-c2ccc(F)c(C)c2)n1` [Compound 12, 5-(2-(4-Fluoro-3-methylphenyl)-6-methylpyridin-3-yl)-1H-indazole] is 10-fold higher in IC50: 1.81 µM for the first, 18.9 µM for the second. The first is the more potent here.

`Fc1cc(F)c(-c2ncccc2-c2ccn3nccc3n2)cc1Cl` [compound 918, 5-(2-(5-Chloro-2,4-difluorophenyl)pyridin-3-yl)pyrazolo[1,5-a]pyrimidine] and `Fc1cc(F)c(-c2ncccc2-c2ccn3nccc3c2)cc1Cl` [compound 760, 5-(2-(5-Chloro-2,4-difluorophenyl)pyridin-3-yl)pyrazolo[1,5-a]pyridine] are within 1.5-fold of each other in IC50: 0.206 µM for the first, 0.274 µM for the second.

First: N#Cc1cccc(-c2ncccc2-c2ccc3nccn3c2)c1 [Compound 51, 3-(3-(Imidazo[1,2-a]pyridin-6-yl)pyridin-2-yl)benzonitrile]
Second: CC(=O)c1cnc2ccc(-c3cccnc3-c3cccc(C)c3)cn12 [compound 587, 1-(6-(2-(m-Tolyl)pyridin-3-yl)imidazo[1,2-a]pyridin-3-yl)ethan-1-one]
The IC50 of the first is 15-fold higher: 5.44 µM for the first, 0.366 µM for the second.

Compared with `Cc1cc(-c2ncccc2-c2ccc3ncnc(OC4CCN(c5ccncc5)CC4)c3c2)ccc1F` [compound 447, 6-(2-(4-Fluoro-3-methylphenyl)pyridin-3-yl)-4-((1-(pyridin-4-yl)piperidin-4-yl)oxy)quinazoline], `Fc1ccc(-c2ncccc2-c2ccc3ncsc3c2)cc1F` [compound 661, 6-(2-(3,4-Difluorophenyl)pyridin-3-yl)benzo[d]thiazole] is 2.4-fold higher in IC50: 0.753 µM for the first, 1.84 µM for the second.

First: COc1ccc(CNc2cnc(-c3ccc(F)c(C)c3)c(-c3ccc4ncsc4c3)c2)cn1 [compound 324, 5-(Benzo[d]thiazol-6-yl)-6-(4-fluoro-3-methylphenyl)-N-((6-methoxypyridin-3-yl)methyl)pyridin-3-amine]
Second: CC(=O)Nc1ccc(CNc2cnc(-c3ccc(F)c(C)c3)c(-c3ccc4ncsc4c3)c2)cc1 [compound 338, N-(4-(((5-(Benzo[d]thiazol-6-yl)-6-(4-fluoro-3-methylphenyl)pyridin-3-yl)amino)methyl)phenyl)acetamide]
The IC50 of the first is 2.8-fold higher: 0.461 µM for the first, 0.164 µM for the second.

`Cc1cc(-c2ncc(NS(C)(=O)=O)cc2-c2ccc3[nH]ncc3c2)ccc1F` [Compound 30, N-(6-(4-Fluoro-3-methylphenyl)-5-(1H-indazol-5-yl)pyridin-3-yl)methanesulfonamide] and `Cc1cccc(-c2ncc(NS(C)(=O)=O)cc2-c2ccc3[nH]ncc3c2)c1` [Compound 32, N-(5-(1H-Indazol-5-yl)-6-m-tolylpyridin-3-yl) methanesulfonamide] are within 1.5-fold of each other in IC50: 3.7 µM for the first, 2.8 µM for the second.

Going from `Cc1cc(-c2ncccc2-c2ccc3ncc(C(=O)OC[C@H](Cc4c[nH]c5ccccc45)NC(=O)OC(C)(C)C)n3c2)ccc1F` [compound 614, (S)-2-((tert-Butoxycarbonyl)amino)-3-(1H-indol-3-yl)propyl 6-(2-(4-fluoro-3-methylphenyl)pyridin-3-yl)imidazo[1,2-a]pyridine-3-carboxylate] to `CC(=O)NCCCNC(=O)c1cnc2ccc(-c3cccnc3-c3ccc(F)c(C)c3)cn12` [compound 816, N-(3-Acetamidopropyl)-6-(2-(4-fluoro-3-methylphenyl)pyridin-3-yl)imidazo[1,2-a]pyridine-3-carboxamide], the IC50 falls from 5.56 µM to 1.61 µM (3.5-fold). The second is the more potent here.

Going from `Cc1cc(-c2nc3c(cc2-c2ccc4[nH]ncc4c2)N(C)CCO3)ccc1F` [compound 300, 6-(4-Fluoro-3-methylphenyl)-7-(1H-indazol-5-yl)-1-methyl-2,3-dihydro-1H-pyrido[2,3-b][1,4]oxazine] to `CCOc1cnc(-c2ccc(F)c(C)c2)c(-c2ccc3[nH]ncc3c2)c1` [Compound 1, 5-(5-Ethoxy-2-(4-fluoro-3-methylphenyl)pyridin-3-yl)-1H-indazole], the IC50 falls from 12.8 µM to 1.65 µM (7.8-fold). The second is the more potent here.

Going from `O=C(NCCCN1CCCC1=O)c1cnc2ccc(-c3cccnc3-c3cc(F)c(F)cc3F)cn12` [compound 728, N-(3-(2-Oxopyrrolidin-1-yl)propyl)-6-(2-(2,4,5-Trifluorophenyl)pyridin-3-yl)imidazo[1,2-a]pyridine-3-carboxamide] to `O=c1[nH]cnc2ccc(-c3cccnc3-c3cc(Cl)ccc3F)cc12` [compound 822, 6-(2-(5-Chloro-2-fluorophenyl)pyridin-3-yl)quinazolin-4(3H)-one], the IC50 falls from 5.06 µM to 0.127 µM (40-fold). The second is the more potent here.

Going from `Clc1cccc(-c2ncccc2-c2ccn3nccc3c2)c1` [compound 759, 5-(2-(3-Chlorophenyl)pyridin-3-yl)pyrazolo[1,5-a]pyridine] to `Nc1noc2ccc(-c3cccnc3-c3cccc(Cl)c3)cc12` [compound 799, 5-(2-(3-Chlorophenyl)pyridin-3-yl)benzo[d]isoxazol-3-amine], the IC50 rises from 0.175 µM to 14.6 µM (83-fold). The first is the more potent here.

Compared with `CC(C)c1cccc(-c2ncccc2-c2cnc3[nH]ncc3c2)c1` [Compound 167, 5-(2-(3-Isopropylphenyl)pyridin-3-yl)-1H-pyrazolo[3,4-b]pyridine], `FC(F)(F)c1cccc(-c2ncccc2-c2cnc3[nH]ncc3c2)c1` [Compound 198, 5-(2-(3-(Trifluoromethyl)phenyl)pyridin-3-yl)-1H-pyrazolo[3,4-b]pyridine] is 40-fold lower in IC50: 17.5 µM for the first, 0.44 µM for the second.

In the case of `CC(=O)Nc1cnc(-c2cccc(C3CC3)c2)c(-c2ccc3[nH]ncc3c2)c1` [Compound 25, N-(6-(3-Cyclopropylphenyl)-5-(1H-indazol-5-yl)pyridin-3-yl)acetamide], the IC50 is reported as 0.612 µM.
